Source: ChEMBL document CHEMBL3091347, “Comparison of Multiple Linear Regressions and Neural Networks based QSAR models for the design of new antitubercular compounds” (Eur J Med Chem, 2013)
In brackets after ≈: the same amount, converted by molar mass.

Experiments:
[1] = Lipophilicity, log P of the compound; details: octanol/water
[2] = tested on: Mycobacterium tuberculosis; test: Antitubercular activity against Mycobacterium tuberculosis BCG; type: functional
[3] = tested on: Mycobacterium tuberculosis; test: Antitubercular activity against Mycobacterium tuberculosis; type: functional

Row | SMILES | logP [1] | MIC [2] [µg/mL] | log(1/MIC) [2] | logP ([1]; logP) | log(1/MIC) [3] | MIC ([3]; Mycobacterium tuberculosis) [µg/mL]
1 | NNC(=O)c1nccnc1C(=O)NN | -5.666 | 15 (≈ 76.5 µM) | -1.176 | – | – | –
2 | NNC(=O)c1ccc(I)cc1 | – | 6 (≈ 22.9 µM) | -0.7782 | 0.278 | – | –
3 | CC1CCC(=NNC(=O)c2ccncc2)CC1 (stereo not given) | – | 0.07 (≈ 0.303 µM) | 1.1549 | 0.315 | – | –
4 | CC(C)CCOc1ccc(/C=N/NC(=O)c2ccncc2)cc1 | – | 0.05 (≈ 0.161 µM) | 1.301 | 3.34 | – | –
5 | CCCCCC/C=N/NC(=O)c1cccs1 | – | 6 (≈ 25.2 µM) | -0.7782 | 1.84 | – | –
6 | CC(=O)Nc1ccc(/C=N\NC(=O)c2ccncc2)cc1 | – | 0.08 (≈ 0.283 µM) | 1.097 | 0.457 | – | –
7 | O=CNNC(=O)c1ccncc1 | – | 3 (≈ 18.2 µM) | -0.4771 | -2.99 | – | –
8 | NNC(=O)c1ccsc1 | – | 8 (≈ 56.3 µM) | -0.9031 | -1.2 | – | –
9 | CCCCCCCCCCCCNNC(=O)c1ccncc1 | – | 0.05 (≈ 0.164 µM) | 1.301 | 3.64 | – | –
10 | CCC(CC)NNC(=O)c1ccncc1 | – | 3 (≈ 14.5 µM) | -0.4771 | -0.19 | – | –
11 | NNC(=O)Cc1ccncc1 | – | 100 (≈ 662 µM) | -2 | -2.69 | – | –
12 | COc1cc(C(=O)NN)ccc1O | – | 30 (≈ 165 µM) | -1.477 | -1.79 | – | –
13 | O=C(N/N=C(\CO)C(O)C(O)C(O)CO)c1ccncc1 (stereo not given) | – | 0.06 (≈ 0.2 µM) | 1.222 | – | – | –
14 | NNC(=O)C1CCNCC1 | – | 600 (≈ 4190 µM) | -2.778 | -3.46 | – | –
15 | NNC(=O)c1ccc(Br)o1 | – | 12 (≈ 58.5 µM) | -1.079 | 1.62 | – | –
16 | NNC(=O)/C=C/c1ccco1 | – | 3 (≈ 19.7 µM) | -0.4771 | -2.02 | – | –
17 | O=C(NNC(=O)c1cccs1)c1cccs1 | – | 15 (≈ 59.4 µM) | -1.176 | -0.738 | – | –
18 | O=C(NNCc1ccco1)c1ccncc1 | – | 15 (≈ 69.1 µM) | -1.176 | -0.641 | – | –
19 | NNC(=O)c1ccc(N)cc1 | -2.07 | 6 (≈ 39.7 µM) | -0.7782 | – | – | –
20 | NNC(=O)c1ccncn1 | – | 20 (≈ 145 µM) | -1.301 | -2.87 | – | –
21 | NNC(=O)/C=C/c1ccccc1 | – | 0.4 (≈ 2.47 µM) | 0.3979 | -1.23 | – | –
22 | Cc1c(C(=O)NN)sc(C(=O)NN)c1C | -2.888 | 30 (≈ 131 µM) | -1.477 | – | – | –

Row | SMILES | logP [1] | MIC [2] [µg/mL] | log(1/MIC) [2] | logP ([1]; logP) | log(1/MIC) [3] | MIC ([3]; Mycobacterium tuberculosis) [µg/mL]
23 | NNC(=O)c1ccc(C(=O)NN)cc1 | – | 3 (≈ 15.4 µM) | -0.4771 | -3.83 | – | –
24 | CC(=O)C/C(C)=N/NC(=O)c1ccncc1 | – | 0.8 (≈ 3.65 µM) | 0.09691 | -3.02 | – | –
25 | NNC(=O)C1CCC(C(=O)NN)CC1 (stereo not given) | -4.55 | 300 (≈ 1500 µM) | -2.477 | – | – | –
26 | NNC(=O)c1cnccn1 [PYRAZINE CARBOXYLIC ACID HYDRAZIDE] | – | 1.5 (≈ 10.9 µM) | -0.1761 | -2.87 | – | –
27 | NNC(=O)c1cnc(N)s1 | – | 6 (≈ 37.9 µM) | -0.7782 | -2.78 | – | –
28 | CCCCC/C(C)=N\NC(=O)c1cccs1 | – | 3 (≈ 12.6 µM) | -0.4771 | 1.71 | – | –
29 | N/N=C(\CC(=O)c1ccncc1)C(=O)c1ccncc1 | – | 15 (≈ 55.9 µM) | -1.176 | -3.16 | – | –
30 | NNC(=O)Cc1ccc(Cl)cc1 | – | 10 (≈ 54.2 µM) | -1 | -0.503 | – | –
31 | CC1CCC(NNC(=O)c2ccncc2)CC1 (stereo not given) | – | 5 (≈ 21.4 µM) | -0.699 | 0.594 | – | –
32 | NNC(=O)c1csc(N)n1 | – | 3 (≈ 19 µM) | -0.4771 | -2.69 | – | –
33 | NNC(=O)c1ccc(Br)cc1 | – | 12 (≈ 55.8 µM) | -1.079 | 0.018 | – | –
34 | CC(C(=O)c1ccncc1)C(/C=N/N)C(=O)c1ccncc1 (stereo not given) | – | 0.5 (≈ 1.69 µM) | 0.301 | -2.43 | – | –
35 | CNC1C(OC2C(OC3C(O)C(O)C(NC(=N)N)C(O)C3NC(=N)N)OC(C)C2(O)/C=N\NC(=O)c2ccncc2)OC(CO)C(O)C1O (stereo not given) | – | – | – | – | 0.82 | 0.15 (≈ 0.214 µM)
36 | Cn1cncc1C(=O)NN | – | 300 (≈ 2140 µM) | -2.477 | -2.55 | – | –
37 | O=C(N/N=C/C(O)C(O)C(O)CO)c1ccncc1 (stereo not given) | -5.33 | 0.05 (≈ 0.186 µM) | 1.301 | – | – | –
38 | O=C(N/N=C/C(O)C(O)C(OC1OC(CO)C(O)C(O)C1O)C(O)CO)c1ccncc1 (stereo not given) | – | 0.15 (≈ 0.325 µM) | 0.8239 | – | – | –
39 | NNC(=O)c1ccc(O)cc1 | -1.51 | 12 (≈ 78.9 µM) | -1.079 | – | – | –
40 | O=C(NNC(=O)c1ccncc1)c1ccncc1 | -2.984 | 8 (≈ 33 µM) | -0.9031 | – | – | –
41 | CCCCCCCCCC/C=N/NC(=O)c1ccncc1 | – | 0.3 (≈ 1.04 µM) | 0.5229 | 2.83 | – | –
42 | O=C(N/N=C\C(O)C(O)C(O)C(O)CO)c1ccncc1 (stereo not given) | – | 0.15 (≈ 0.501 µM) | 0.8239 | – | – | –
43 | NNC(=O)Cc1ccsc1 | – | 100 (≈ 640 µM) | -2 | -1.57 | – | –
